Earlier results, collected in patent US8822429B2, “Citicoline for the treatment of glaucoma and ocular hypertension” (Omikron Italia S.r.l., priority 2010, dated 2014).

Settings: taken orally

excreted in the feces: less than 1% | time of plasma peak after ingestion (first peak): 1 h | time of second, larger plasma peak (larger peak following the first): 24 h
SMILES: C[N+](C)(C)CCOP(=O)(O)OP(=O)([O-])OC[C@H]1O[C@@H](n2ccc(N)nc2=O)[C@H](O)[C@@H]1O [Citicoline, cytidine-5′-diphosphocholine]
